Values of other authors in patent US12296046B2, “Micro-emulsion containing creatine fatty-ester, method for preparing said micro-emulsion and uses thereof” (COMMISSARIAT À L'ÉNERGIE ATOMIQUE ET AUX ÉNERGIES …, priority 2018, dated 2025).

System: CrT−/y mice
Conditions: 30 mg/kg, intracerebroventricular administration

Compound: CCCCCCCCCCCCOC(=O)CN(C)C(=N)N [DCE, dodecyl creatine ester]
- performance in the object recognition task: significantly improves the performance
